In patent publication US5571804A, “Cephalosporin antibiotics” (priority 1993, dated 1996):

Experiments:
Assay in all cases: MIC, two-fold agar dilution
Format in all cases: cell-based
Details in all cases: Muller-Hinton agar, 37° C., 20 hours
E. coli TEM1 1193E = tested on: E. coli TEM1 1193E
Proteus vularis 6059A = tested on: Proteus vularis 6059A
[1] = tested on: Staphylococcus aureus giorgio
E. coli TEM7 3457E = tested on: E. coli TEM7 3457E
[2] = tested on: Pseudomonas aeruginosa 6065
[3] = tested on: Enterobacter cloacae IND + VE 1194E
Staphylococcus aureus 77 = tested on: Staphylococcus aureus 77
[4] = tested on: Staphylococcus aureus 6538P
E. coli TEM9 2639E = tested on: E. coli TEM9 2639E
[5] = tested on: Citrobacter diversus 2046E
[6] = tested on: Pseudomonas aeruginosa 10145
[7] = tested on: Acinetobacter calcoaceticus 15473A
[8] = tested on: Klebsiella aerogenes K1 + 1082E
[9] = tested on: Klebsiella aerogenes SHV-1 1976E
E. coli TEM3 3455E = tested on: E. coli TEM3 3455E
E. coli 851E = tested on: E. coli 851E
[10] = tested on: Salmonella typhimurium 14028A
[11] = tested on: Pseudomonas aeruginosa 1912E
E. coli 10536 = tested on: E. coli 10536
E. coli TEM5 3739E = tested on: E. coli TEM5 3739E
[12] = tested on: Staphylococcus aureus 241
Enterobacter cloacae P99 = tested on: Enterobacter cloacae P99
E. coli 3190Y = tested on: E. coli 3190Y
[13] = tested on: Streptococcus laecalis 29212A
[14] = tested on: Serratia marcescens 1826E

SMILES | minimal inhibitory concentration (MIC) (E. coli TEM1 1193E) | minimal inhibitory concentration (MIC) (Proteus vularis 6059A) | minimal inhibitory concentration (MIC) [1] | minimal inhibitory concentration (MIC) (E. coli TEM7 3457E) | minimal inhibitory concentration (MIC) [2] | minimal inhibitory concentration (MIC) [3] | minimal inhibitory concentration (MIC) (Staphylococcus aureus 77) | minimal inhibitory concentration (MIC) [4] | minimal inhibitory concentration (MIC) (E. coli TEM9 2639E) | minimal inhibitory concentration (MIC) [5] | minimal inhibitory concentration (MIC) [6] | minimal inhibitory concentration (MIC) [7] | minimal inhibitory concentration (MIC) [8] | minimal inhibitory concentration (MIC) [9] | minimal inhibitory concentration (MIC) (E. coli TEM3 3455E) | minimal inhibitory concentration (MIC) (E. coli 851E) | minimal inhibitory concentration (MIC) (E. coli 10536) | minimal inhibitory concentration (MIC) (E. coli TEM5 3739E) | minimal inhibitory concentration (MIC) [12] | minimal inhibitory concentration (MIC) (Enterobacter cloacae P99) | also measured
Nc1cc(N)nc(SCC2=C(C(=O)O)N3C(=O)[C@@H](NC(=O)/C(=N\O[C@@H](C(=O)O)c4ccc(O)c(O)c4)c4csc(N)n4)[C@H]3SC2)n1 [Compound I-1R, 7-[(Z)-2-(aminothiazol-4-yl)-2-(α-carboxy-3,4-dihydroxybenzyloxyimino)acetamido]-3-(4,6-diamino-pyrimidine-2-yl) thiomethyl-3-cephem-4-carboxylate] | 0.25 | 0.5 | 1 | 0.063 | 8 | 32 | 32 | 2 | 0.5 | 1 | 2 | 1 | 0.5 | 0.5 | 0.25 | 0.13 | 0.063 | 0.25 | 128 | 32 | minimal inhibitory concentration (MIC) [10]: 0.13; minimal inhibitory concentration (MIC) [11]: 1; minimal inhibitory concentration (MIC) (E. coli 3190Y): 0.13; minimal inhibitory concentration (MIC) [13]: 16; minimal inhibitory concentration (MIC) [14]: 2
Cc1c(N)nc(SCC2=C(C(=O)O)N3C(=O)[C@@H](NC(=O)/C(=N\O[C@@H](C(=O)O)c4ccc(O)c(O)c4)c4csc(N)n4)[C@H]3SC2)nc1N [Compound I-2R, 7-[(Z)-2-(aminothiazol-4-yl)-2-(α-carboxyl-3,4-dihydroxybenzyloxyimino)acetamido]-3-(4,6-diamino-5-methylpyrimidine-2-yl)thiomethyl-3-cephem-4-carboxylate] | 0.5 | 0.5 | 1 | 0.016 | 8 | 32 | 32 | 2 | 0.5 | 2 | 2 | 1 | 1 | 0.5 | 0.25 | 0.13 | 0.063 | 0.25 | 128 | 32 | minimal inhibitory concentration (MIC) [10]: 0.25; minimal inhibitory concentration (MIC) (E. coli 3190Y): 0.13; minimal inhibitory concentration (MIC) [13]: 32; minimal inhibitory concentration (MIC) [14]: 2
Nc1ccnc(SCC2=C(C(=O)O)N3C(=O)[C@@H](NC(=O)/C(=N\O[C@@H](C(=O)O)c4ccc(O)c(O)c4)c4csc(N)n4)[C@H]3SC2)n1 [Compound I-3R, 7-[(Z)-2-(aminothiazol-4-yl)-2-(α-carboxyl-3,4-dihydroxybenzyloxyimino)acetamido]-3-(4-amino-pyrimidine-2-yl) thiomethyl-3-cephem-4-carboxylate] | 0.5 | 0.5 | 2 | 0.016 | 8 | 32 | 16 | 2 | 0.5 | 2 | 2 | 1 | 0.5 | 1 | 0.25 | 0.13 | 0.031 | 0.25 | 128 | 16 | minimal inhibitory concentration (MIC) [11]: 1; minimal inhibitory concentration (MIC) (E. coli 3190Y): 0.13; minimal inhibitory concentration (MIC) [13]: 32; minimal inhibitory concentration (MIC) [14]: 2
Nc1nc(/C(=N/O[C@@H](C(=O)O)c2ccc(O)c(O)c2)C(=O)N[C@@H]2C(=O)N3C(C(=O)O)=C(CSc4nc(N)c(N)c(N)n4)CS[C@H]23)cs1 [Compound I-5R, 7-[(Z)-2-(aminothiazol-4-yl)-2-(α-carboxy-3,4-dihydroxybenzyloxyimino)acetamido]-3-(4,5,6-triaminopyrimidine-2-yl)thiomethyl-3-cephem-4-carboxylate] | 0.25 | 0.5 | 1 | 0.063 | 8 | 32 | 32 | 2 | 0.5 | 1 | 2 | 1 | 0.5 | 0.25 | 0.25 | 0.13 | 0.063 | 0.25 | 128 | 32 | minimal inhibitory concentration (MIC) [10]: 0.13; minimal inhibitory concentration (MIC) [11]: 1; minimal inhibitory concentration (MIC) (E. coli 3190Y): 0.063; minimal inhibitory concentration (MIC) [13]: 16; minimal inhibitory concentration (MIC) [14]: 2
